The record followed here is US9604996B2 (Bayer Pharma Aktiengesellschaft, priority 2013, dated 2017).

Structures are written as SMILES.

Broadly, the IC50 is the concentration that inhibits the measured activity by half.

The target in this assay is T1, human adenosine A2b receptor (Homo sapiens, UniProt P29275).
T1 construct: expressed in transfected cells; host or cells: CHO-K1 (Chinese Hamster Ovary) with CRE-luciferase reporter
T1 sequence (P29275 1-332): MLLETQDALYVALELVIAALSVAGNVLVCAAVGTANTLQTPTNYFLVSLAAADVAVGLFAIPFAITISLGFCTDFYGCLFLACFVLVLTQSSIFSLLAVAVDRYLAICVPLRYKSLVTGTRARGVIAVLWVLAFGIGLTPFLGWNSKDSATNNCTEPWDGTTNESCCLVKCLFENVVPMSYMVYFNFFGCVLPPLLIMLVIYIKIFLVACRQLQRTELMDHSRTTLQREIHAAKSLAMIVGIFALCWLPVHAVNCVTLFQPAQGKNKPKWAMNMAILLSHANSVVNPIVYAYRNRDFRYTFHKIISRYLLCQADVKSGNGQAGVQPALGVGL
Description: Cellular reporter gene (CRE-luciferase) A2b receptor antagonist assay in recombinant CHO-K1 cells stimulated with NECA. The assay is classed as cell-based. The settings on record: recombinant CHO-K1 cell line, co-incubation with EC50 concentration of NECA, 3 hours, in some cases means, rounded to two significant digits. Here is the method:
B-1. Cellular In Vitro Tests for Determining A2b Receptor Activity and Adenosine Receptor Selectivity
The identification of selective antagonists of the human adenosine A2b receptor and the quantification of the efficacy and selectivity of the compounds according to the invention was carried out with the aid of recombinant cell lines for the human adenosine receptors A1, A2a, A2b and A3. These cell lines were originally derived from an ovarepithelial cell of the hamster (Chinese Hamster Ovary, CHO-K1, American Type Culture Collection, Manassas, Va. 20108, USA). In addition to the respective recombinantly expressed adenosine receptor for testing the efficacy at the A1, A2a and A2b receptors, the cell lines contain a reporter gene construct where expression of the firefly (Photinus pyralis) luciferase is under the control of a promoter which can be activated via intracellular signal cascades by stimulation of the receptors with the (not subtype-selective) adenosine receptor agonist NECA (5′-N-ethylcarboxamidoadenosine) [S. J. Hill, J. G. Baker, S. Rhees, Curr. Opin. Pharmacol. 1, 526-532 (2001)].
In the case of the A2a and A2b cell lines, this is a minimal promoter having a plurality of cAMP-responsive elements (CRE). Stimulation of the Gs coupled A2b or A2a receptors by NECA ultimately leads, via formation of cAMP, to CRE-dependent induction of luciferase expression, which is detected 3 hours after the start of the incubation with NECA using a detection solution in a suitable luminometer. For testing the antagonists, initially, in a pre-experiment, the concentration of NECA which, at the test day in question, results in half-maximum stimulation of luciferase expression (EC50 concentration) is determined By joint incubation of this EC50 concentration of NECA with the substances to be tested, it is possible to determine their antagonistic activity.

As to `CCn1c(=O)c2c(C)c(C(=O)N3CCNC(=O)C3C)sc2n(CCC(F)(F)F)c1=O` (racemic) [Example 39, 3-Ethyl-5-methyl-6-[(2-methyl-3-oxopiperazin-1-yl)carbonyl]-1-(3,3,3-trifluoropropyl)thieno[2,3-d]pyrimidine-2,4(1H,3H)-dione (racemate)], the IC50 is 220 nM.

For `CCC1C(=O)NCCN1C(=O)c1sc2c(c1C)c(=O)n(CC)c(=O)n2CCC(F)(F)F` (racemic) [Example 40, 3-Ethyl-6-[(2-ethyl-3-oxopiperazin-1-yl)carbonyl]-5-methyl-1-(3,3,3-trifluoropropyl)thieno[2,3-d]pyrimidine-2,4(1H,3H)-dione (racemate)], the IC50 was found to be 230 nM.

For `Cc1c(C(=O)N2CCC(O)CC2)sc2c1c(=O)n(CC(C)c1ccccc1)c(=O)n2CCC(F)(F)F` (racemic) [Example 43, 6-[(4-Hydroxypiperidin-1-yl)carbonyl]-5-methyl-3-(2-phenylpropyl)-1-(3,3,3-trifluoropropyl)thieno[2,3-d]pyrimidine-2,4(1H,3H)-dione (racemate)], the IC50 worked out at 6.3 nM. As to `COC(Cn1c(=O)c2c(C)c(C(=O)N3CCC(O)CC3)sc2n(CCC(F)(F)F)c1=O)c1ccccc1` (racemic) [Example 46, 6-[(4-Hydroxypiperidin-1-yl)carbonyl]-3-(2-methoxy-2-phenylethyl)-5-methyl-1-(3,3,3-trifluoropropyl)thieno[2,3-d]pyrimidine-2,4(1H,3H)-dione (racemate)], the IC50 amounted to 7.9 nM. As to `CCn1c(=O)c2c(C)c(C(=O)N3CCC(O)CC3)sc2n(CC2CC2(F)F)c1=O` (racemic) [Example 59, 1-[(2,2-Difluorocyclopropyl)methyl]-3-ethyl-6-[(4-hydroxypiperidin-1-yl)carbonyl]-5-methylthieno[2,3-d]pyrimidine-2,4(1H,3H)-dione (racemate)], the half-maximal inhibitory concentration (IC50) amounted to 370 nM. On to `COC(C)Cn1c(=O)c2c(C)c(C(=O)N3CCC(O)CC3)sc2n(CCC(F)(F)F)c1=O` (racemic) [Example 65, 6-[(4-Hydroxypiperidin-1-yl)carbonyl]-3-(2-methoxypropyl)-5-methyl-1-(3,3,3-trifluoropropyl)thieno[2,3-d]pyrimidine-2,4(1H,3H)-dione (racemate)], for which the IC50 was found to be 96 nM. The figure for `COC(Cn1c(=O)c2c(C)c(C(=O)N3CCC(O)CC3)sc2n(CCC(F)(F)F)c1=O)C(F)(F)F` (racemic) [Example 66, 6-[(4-Hydroxypiperidin-1-yl)carbonyl]-5-methyl-3-(3,3,3-trifluoro-2-methoxypropyl)-1-(3,3,3-trifluoropropyl)thieno[2,3-d]pyrimidine-2,4(1H,3H)-dione (racemate)] is 280 nM; for `COC(Cn1c(=O)c2c(C)c(C(=O)N3CCC(O)(CO)CC3)sc2n(CCC(F)(F)F)c1=O)C(F)(F)F` (racemic) [Example 81, 6-{[4-Hydroxy-4-(hydroxymethyl)piperidin-1-yl]carbonyl}-5-methyl-3-(3,3,3-trifluoro-2-methoxypropyl)-1-(3,3,3-trifluoropropyl)thieno[2,3-d]pyrimidine-2,4(1H,3H)-dione] it is 170 nM. For the compound `Cc1c(C(=O)N2CCC(O)CC2)sc2c1c(=O)n(CC(c1ccccc1)C(F)(F)F)c(=O)n2CCC(F)(F)F` (racemic) [Example 104, 6-[(4-Hydroxypiperidin-1-yl)carbonyl]-5-methyl-3-(3,3,3-trifluoro-2-phenylpropyl)-1-(3,3,3-trifluoropropyl)thieno[2,3-d]pyrimidine-2,4(1H,3H)-dione], the concentration for half-maximal inhibition (IC50) is 9.1 nM. For the compound `Cc1c(C(=O)N2CCC(O)CC2)sc2c1c(=O)n(CC(C)(O)c1ccccc1)c(=O)n2CCC(F)(F)F` (racemic) [Example 105, 3-(2-Hydroxy-2-phenylpropyl)-6-[(4-hydroxypiperidin-1-yl)carbonyl]-5-methyl-1-(3,3,3-trifluoropropyl)thieno[2,3-d]pyrimidine-2,4(1H,3H)-dione], the IC50 was determined as 69 nM. On to `CCn1c(=O)c2c(C)c(C(=O)N3CCC(O)C(O)C3)sc2n(CCC(F)(F)F)c1=O` (racemic) [Example 116, 6-[(3,4-Dihydroxypiperidin-1-yl)carbonyl]-3-ethyl-5-methyl-1-(3,3,3-trifluoropropyl)thieno [2,3-d]pyrimidine-2,4(1H,3H)-dione], for which the half-inhibitory concentration (IC50) was 200 nM. In the case of `CCn1c(=O)c2c(C)c(C(=O)N3CCC(O)C(O)C3)sc2n(CCC(F)(F)F)c1=O` (racemic) [Example 119, 6-[(3,4-Dihydroxypiperidin-1-yl)carbonyl]-3-ethyl-5-methyl-1-(3,3,3-trifluoropropyl)thieno [2,3-d]pyrimidine-2,4(1H,3H)-dione] it was 210 nM; in that of `CCn1c(=O)c2c(C(C)F)c(C(=O)N3CCC(O)CC3)sc2n(CCC(F)(F)F)c1=O` (racemic) [Example 145, 3-Ethyl-5-(1-fluoroethyl)-6-[(4-hydroxypiperidin-1-yl)carbonyl]-1-(3,3,3-trifluoropropyl)thieno[2,3-d]pyrimidine-2,4(1H,3H)-dione], 97 nM.

For `CCn1c(=O)c2c(C(C)F)c(C(=O)N3CCC(C)(O)CC3)sc2n(CCC(F)(F)F)c1=O` (racemic) [Example 146, 3-Ethyl-5-(1-fluoroethyl)-6-[(4-hydroxy-4-methylpiperidin-1-yl)carbonyl]-1-(3,3,3-trifluoropropyl)thieno[2,3-d]pyrimidine-2,4(1H,3H)-dione], the IC50 was determined as 40 nM.

On to `CCn1c(=O)c2c(C(C)F)c(C(=O)N3CCNC(=O)C3)sc2n(CCC(F)(F)F)c1=O` (racemic) [Example 147, 3-Ethyl-5-(1-fluoroethyl)-6-[(3-oxopiperazin-1-yl)carbonyl]-1-(3,3,3-trifluoropropyl)thieno[2,3-d]pyrimidine-2,4(1H,3H)-dione], for which the concentration for half-maximal inhibition (IC50) was determined as 100 nM. As to `Cc1c(C(=O)N2CCC(O)CC2)sc2c1c(=O)n(CC(O)c1ccccc1)c(=O)n2CCC(F)(F)F` (single isomer, unassigned) [Example 100, 3-(2-Hydroxy-2-phenylethyl)-6-[(4-hydroxypiperidin-1-yl)carbonyl]-5-methyl-1-(3,3,3-trifluoropropyl)thieno[2,3-d]pyrimidine-2,4(1H,3H)-dione], the half-maximal inhibitory concentration (IC50) was found to be 29 nM. `Cc1c(C(=O)N2CCC(O)CC2)sc2c1c(=O)n(CC(O)c1ccccc1)c(=O)n2CCC(F)(F)F` (single isomer, unassigned) [Example 101, 3-(2-Hydroxy-2-phenylethyl)-6-[(4-hydroxypiperidin-1-yl)carbonyl]-5-methyl-1-(3,3,3-trifluoropropyl)thieno[2,3-d]pyrimidine-2,4(1H,3H)-dione]: the 50% inhibitory concentration (IC50) turned out to be 1200 nM. Regarding `Cc1c(C(=O)N2CCC(O)CC2)sc2c1c(=O)n(CC(F)c1ccccc1)c(=O)n2CCC(F)(F)F` (single isomer, unassigned) [Example 102, 3-(2-Fluoro-2-phenylethyl)-6-[(4-hydroxypiperidin-1-yl)carbonyl]-5-methyl-1-(3,3,3-trifluoropropyl)thieno [2,3-d]pyrimidine-2,4(1H,3H)-dione], the IC50 came out at 3.6 nM. For the compound `Cc1c(C(=O)N2CCC(O)CC2)sc2c1c(=O)n(CC(F)c1ccccc1)c(=O)n2CCC(F)(F)F` (single isomer, unassigned) [Example 103, 3-(2-Fluoro-2-phenylethyl)-6-[(4-hydroxypiperidin-1-yl)carbonyl]-5-methyl-1-(3,3,3-trifluoropropyl)thieno[2,3-d]pyrimidine-2,4(1H,3H)-dione], the IC50 turned out to be 16 nM.
